{"source": "patent US9999612B2", "about": "“PPARs agonist activity enhancing drug” (Tsujimoto Chemical Co., Ltd., priority 2012, dated 2018)", "key": {"PPARα [1]": {"system": "PPARα", "assay": "PPARα agonist activity, reporter gene assay using COS-1 cells", "format": "cell-based", "conditions": "for difference between PPARα values of the R and S bodies: 25 μM, FIG. 6; for PPARα agonist activity: study of aliphatic chain length of δ-lactones; for PPARα agonist activity, ratio to WY14643 50 μM (= 1.00): FIG. 1", "protocol": "(§1) The agonist activities of PPARα, PPARδ and PPARγ, respectively, were visually verified by a reporter gene assaying method using COS-1 cells so as to evaluate them. The evaluation method is as below.\n(§2) The COS-1 cells were collected by trypsinization, centrifuged (1000 rpm, 4° C., 3 min.), and then seeded on a 60 mm Petri dish for cultivation in a density of 6×10^5 cells/well. After cultivation at 37° C. under 5% CO2 for 24 hours, cells were transformed using […]® Transfection Reagent (QIAGEN®). EC buffer ([…]), pPPARα-GAL4 (0.25 μg), pPPARδ-GAL4 (0.25 μg) or pPPARγ-GAL4 (0.25 μg), p17M2G (1 μg), pSEAP control vector (1 μg) were put into a 1.5 ml Eppendorf tube, to which 18 μl of Enhancer was added, and stirred by a vortex for 1 second. This was left to stand at room temperature for 3 minutes, to which 25 μl of Effectene was added, stirred by the voltex for 10 seconds, and left to stand at room temperature for 7 minutes. Simultaneously, the medium for transformation in the 60 mm Petri dish for cultivation was removed, to which […] of medium was added to exchange the medium. Seven minutes later, 1 ml of medium was added to the Eppendorf tube, suspended twice, dropped to a 60 mm Petri dish for cultivation, and cultivated 37° C. under 5% CO2 for 16 hours.\n(§3) The cells were collected by trypsinization after 16 hours, centrifuged (1000 rpm, 4° C., 3 min.), and then suspended in 6 ml of medium, and seeded on a 96-well plate at 125 μl/well. The sample solution was added at 1.25 μl/well after 2-3 hours, and cultivated 37° C. under 5% CO2 for 24 hours. Then the medium was collected at 25 μl/well, a secreted alkaline phosphatase (SEAP) activity was measured using GREAT ESCAPE™ SEAP (Clontech Laboratories, Inc.) kit. As the outline, 1× dilution buffer was added at 25 μl/well, mildly stirred, sealed with a scotch tape, and incubated at 65° C. for 30 minutes. Subsequently, it was cooled at 4° C., and returned to room temperature, then an assay buffer was added at 90 μl/well. It was left to stand at room temperature for 5 minutes, to which 10 μl of MUP solution was added at 10 μl/well. At room temperature, it was left to stand in a dark room for 1 hour, and then fluorescence intensity based on 4-methylumbelliferyl phosphate (Ex=360 nm, Em=460 nm) was measured.\n(§4) In order to measure the activity for PPARα, luciferase activity measuring cocktail (Invitrogen) was added to other 96 well plate at 100 μl/well to measure the emission intensity. Compensation among each well was performed by dividing the measured value of the luciferase activity by the SEAP activity value.\n7 to 9, i.e. C9 to C11 in which the α and β positions in the lactone ring of the raw material are substituted by double bonds, which are the compounds of the present invention. […] The structure of carbon number C8 lacks one side chain in the carbon number C9, and the structure of carbon number C12 adds one side chain to the carbon number C11, in which no double bond is provided. The carbon numbers C9 to C11 represents numbers of the carbon atoms in the compounds of Chemical formulae 4 to 6 and Chemical formulae 7 to 9."}, "PPARs": {"system": "PPARs", "assay": "PPARs agonist activity, collective evaluation (PPARα, δ and γ)", "format": "cell-based", "conditions": "for difference between activities of the R body and the S body, three PPARs: FIG. 6, three tests averaged", "protocol": "as §1, §2\nThe cells were collected by trypsinization after 16 hours, centrifuged (1000 rpm, 4° C., 3 min.), and then suspended in 6 ml of medium, and seeded on a 96-well plate at 125 μl/well. […] Then the medium was collected at 25 μl/well, a secreted alkaline phosphatase (SEAP) activity was measured using GREAT ESCAPE™ SEAP (Clontech Laboratories, Inc.) kit. […] At room temperature, it was left to stand in a dark room for 1 hour, and then fluorescence intensity based on 4-methylumbelliferyl phosphate (Ex=360 nm, Em=460 nm) was measured.\nas §4"}, "PPARα [2]": {"molecular_target": "T1, PPARα (Homo sapiens, UniProt Q07869)", "T1 construct": "endogenous in cells; host or cells: HepG2", "T1 sequence (Q07869 1-468)": "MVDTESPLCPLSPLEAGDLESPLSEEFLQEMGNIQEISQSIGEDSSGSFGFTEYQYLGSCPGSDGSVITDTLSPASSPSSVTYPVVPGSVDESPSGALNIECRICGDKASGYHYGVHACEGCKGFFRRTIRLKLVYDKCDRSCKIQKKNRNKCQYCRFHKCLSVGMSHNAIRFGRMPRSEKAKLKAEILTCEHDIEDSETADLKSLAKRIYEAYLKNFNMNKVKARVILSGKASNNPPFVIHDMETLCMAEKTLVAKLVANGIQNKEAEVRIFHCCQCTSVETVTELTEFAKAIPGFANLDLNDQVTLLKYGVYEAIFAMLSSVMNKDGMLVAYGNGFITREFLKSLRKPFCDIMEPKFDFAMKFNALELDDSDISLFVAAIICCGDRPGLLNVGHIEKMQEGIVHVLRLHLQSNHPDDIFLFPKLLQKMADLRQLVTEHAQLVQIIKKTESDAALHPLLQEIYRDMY", "assay": "Activity test using HepG2 cells: ACS and CPT1A gene expression (PPARα agonist activity)", "format": "cell-based", "conditions": "C11 at 50 μM and 25 μM, FIG. 4", "protocol": "Next, a novel compound C11 was focused, and further activity tests using HepG2 cells were carried out. […] In the figure, GAPDH represents a housekeeping indicator, ACS represents expression of lipid metabolism gene, and CPT1A represents expression of lipolytic gene. As a drug for comparison, Bezafibrate known as PPARα agonist activity enhancer was used with 50 μM dilution, and the compound C11 of the present invention was used at concentrations of 50 μM and 25 μM."}, "PPARγ [3]": {"system": "PPARγ", "assay": "Differentiation induction method using 3T3-L1 cells: fat cell differentiation induction-associated gene expression (Adiponectine)", "format": "cell-based, mouse", "conditions": "25 μM, 12 μM and 6 μM, FIG. 5", "protocol": "Subsequently, an agonist activity test on fat cell differentiation induction-associated genes was similarly carried out for C11, and the results are shown in FIG. 5. In this test, the differentiation induction method using 3T3-L1 cells was conducted. For preparing samples, a plate having a total of 24 depressions of 6 lines×4 rows was used, and a known mouse fat cells was used to observe PPARγ agonist activities. In relation to 5 samples shown in the figure, in order from the right, a sample without insulin administration, a sample dosed with 1.7 μM of insulin, a sample dosed with 25 μM of C11 compound, a sample dosed with 12 μM of C11 compound and a sample dosed with 6 μM of C11 compound are shown. CAPDH is a housekeeping indicator, C/EBPα is a control, and Adiponectine is an expressed gene."}, "PPARγ [4]": {"system": "PPARγ", "assay": "PPARγ agonist activity, reporter gene assay using COS-1 cells", "format": "cell-based", "conditions": "for PPARγ agonist activity compared with control substance 10 μM Trogliazone: 50 μM", "protocol": "as §1, §2, §3\n(§5) Concentrations of the samples to be evaluated are 50 μM and 5 μM."}, "PPARδ": {"system": "PPARδ", "assay": "PPARδ agonist activity, reporter gene assay using COS-1 cells", "format": "cell-based", "protocol": "as §1, §2, §3, §5"}, "[5]": {"conditions": "study of aliphatic chain length of δ-lactones"}}}
{"smiles": "CCCCC[C@H]1CC=CC(=O)O1", "note": "[S body, (S)-6-pentyl-5,6-dihydro-2H-pyran-2-one]", "values": [{"measurement": "difference between PPARα values of the R and S bodies", "setting": "PPARα [1]", "result": "significant difference"}, {"measurement": "difference between activities of the R body and the S body, three PPARs", "setting": "PPARs", "result": "no significant difference"}]}
{"smiles": "CCCCCCC1CC=CC(=O)O1", "note": "(stereo not shown) [C11, 6-hexyl-5,6-dihydro-2H-pyran-2-one]", "values": [{"measurement": "gene expression (ACS, CPT1A) compared with Bezafibrate 50 μM", "setting": "PPARα [2]", "result": "at least equal to or greater than that of Bezafibrate"}, {"measurement": "activity on fat cell differentiation induction-associated genes (Adiponectine expression)", "setting": "PPARγ [3]", "result": "effective activities"}]}
{"smiles": "CCCCCC1CCCC(=O)O1", "note": "(stereo not shown) [δ-decanolactone, 6-pentyltetrahydro-2H-pyran-2-one]", "values": [{"measurement": "PPARα agonist activity", "setting": "PPARα [1]", "result": "strong agonist activity"}, {"measurement": "PPARγ agonist activity", "setting": "PPARγ [4]; [5]", "result": "strong agonist activity"}, {"measurement": "activity of lactone structures (ring size comparison γ, δ, ϵ)", "setting": "PPARs; comparison of γ-, δ- and ϵ-decanolactone", "result": "relatively strong activity"}, {"measurement": "PPARδ agonist activity", "setting": "PPARδ; [5]", "result": "strong agonist activity"}]}
{"smiles": "CCCCCCCC1CCCC(=O)O1", "note": "(stereo not shown) [C12, 6-heptyltetrahydro-2H-pyran-2-one]", "values": [{"measurement": "PPARα agonist activity, ratio to WY14643 50 μM (= 1.00)", "setting": "PPARα [1]; 5 μM", "result": "did not show strong activity"}, {"measurement": "PPARα agonist activity, ratio to WY14643 50 μM (= 1.00)", "setting": "PPARα [1]; 50 μM", "result": "did not show strong activity"}, {"measurement": "PPARγ agonist activity", "setting": "PPARγ [4]; 5 μM, FIG. 3", "result": "little activities"}, {"measurement": "PPARγ agonist activity compared with control substance 10 μM Trogliazone", "setting": "PPARγ [4]; FIG. 3", "result": "considerably lower activities than the values of C9 to C11"}, {"measurement": "PPARδ agonist activity", "setting": "PPARδ; 5 μM, FIG. 2", "result": "little activity"}]}
{"smiles": "CCCCCCC1CCCC(=O)O1", "note": "(stereo not shown) [δ-undecanolactone, 6-hexyltetrahydro-2H-pyran-2-one]", "values": [{"measurement": "PPARα agonist activity", "setting": "PPARα [1]", "result": "strong agonist activity"}, {"measurement": "PPARδ agonist activity", "setting": "PPARδ; [5]", "result": "strong agonist activity"}]}
{"smiles": "Cc1cccc(Nc2cc(Cl)nc(SCC(=O)O)n2)c1C", "note": "[WY14643]", "values": [{"measurement": "PPARα agonist activity, ratio to WY14643 50 μM (= 1.00)", "setting": "PPARα [1]; 50 μM", "result": 1.00}]}
{"smiles": "CCCCC1CCCC(=O)O1", "note": "(stereo not shown) [δ-nonanolactone, 6-butyltetrahydro-2H-pyran-2-one]", "values": [{"measurement": "PPARα agonist activity", "setting": "PPARα [1]", "result": "strong agonist activity"}, {"measurement": "PPARγ agonist activity", "setting": "PPARγ [4]; [5]", "result": "strong agonist activity"}, {"measurement": "PPARδ agonist activity", "setting": "PPARδ; [5]", "result": "strong agonist activity"}]}
{"smiles": "CCCCC[C@@H]1CC=CC(=O)O1", "note": "[R body, (R)-6-pentyl-5,6-dihydro-2H-pyran-2-one]", "values": [{"measurement": "difference between PPARα values of the R and S bodies", "setting": "PPARα [1]", "result": "significant difference"}, {"measurement": "difference between activities of the R body and the S body, three PPARs", "setting": "PPARs", "result": "no significant difference"}]}
{"smiles": "CCCC1CCCC(=O)O1", "note": "(stereo not shown) [C8, 6-propyltetrahydro-2H-pyran-2-one]", "values": [{"measurement": "PPARα agonist activity, ratio to WY14643 50 μM (= 1.00)", "setting": "PPARα [1]; 5 μM", "result": "can hardly be expected for the activity"}, {"measurement": "PPARγ agonist activity", "setting": "PPARγ [4]; 5 μM, FIG. 3", "result": "little activities"}, {"measurement": "PPARγ agonist activity compared with control substance 10 μM Trogliazone", "setting": "PPARγ [4]; FIG. 3", "result": "considerably lower activities than the values of C9 to C11"}, {"measurement": "PPARδ agonist activity", "setting": "PPARδ; 5 μM, FIG. 2", "result": "little activity"}]}
